What is called IC50 is the concentration at which inhibition is half-maximal. A low value points to inhibition by little substance.

This is an account of results in patent US8802634B2, “CD40-L Inhibitory Peptides” (Phylogica Limited, priority 2008, dated 2014).

For test [1], the target named is CD40L-induced CD86 expression on primary B-cells (Homo sapiens, UniProt P29965). Kind of test: Inhibition of CD40L-induced CD86 expression on primary B-cells (FACS). To be noted: for inhibition of CD40L-induced CD86 expression (qualitative): figure legends; for EC50: PEGylated monomeric peptide, read-out: EC50 PEGylated peptide. The test is classed as cell-based. The method, then: In one example, the ability of a peptide, analog or derivative of the invention to inhibit or reduce or delay expression of CD86 on primary B-cells was determined in the presence and absence of the peptides, analogs and derivatives of the invention. In particular, CD86 expression was determined by FACS.
In these assays, CD40L induced CD86 expression in a concentration-dependent manner in the absence of a peptidyl inhibitor of the present invention with an EC50 value of about 9 nM (FIG. 6d, 6e). As a control in these assays, LPS-induced expression of CD86 mediated by the Toll-like receptors TLR 2/4, and TNFα-induced cytoxicity, were also assayed to exclude effects mediated by ligands other than CD40L.
In a similar series of bioassays, dimeric forms of the CD40L peptide inhibitors were also tested for their ability to inhibit or reduce CD40L-induced expression of CD86 on primary B-cells.

In another test the target is T1, CD40L/CD40-Fc (Homo sapiens, UniProt P29965).
T1 sequence (P29965 113-261 limits assumed): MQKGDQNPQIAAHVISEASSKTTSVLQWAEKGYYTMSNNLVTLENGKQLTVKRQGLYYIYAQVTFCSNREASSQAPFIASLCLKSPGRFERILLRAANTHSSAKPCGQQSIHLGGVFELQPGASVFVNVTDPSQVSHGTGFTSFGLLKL
Kind of test: Chemiluminescent proximity assay (Alphascreen) of CD40L-CD40 interaction. The test is classed as binding. The method, then: In one example, the Alphascreen assay (PerkinElmer) was employed according to the manufacturer's instructions.
Homodimers and heterodimers were also assayed by chemiluminescent proximity assay for their ability to inhibit CD40L-CD40 interaction.
Background: In Alpha technology, singlet oxygen from a donor bead excites a nearby acceptor bead.

Read-outs that look alike come from different tables or passages of the source. Where a SMILES comes first, the peptide text is derived from it. Bridges are numbered along the chain shown (N, C = ends). Roman numbers before positions name the chains, in order. [ ]: non-standard residue; d: D form. AEEA = NCCOCCOCC(=O)O

CD40L-induced CD86 expression on primary B-cells, sequence (P29965 whole entry): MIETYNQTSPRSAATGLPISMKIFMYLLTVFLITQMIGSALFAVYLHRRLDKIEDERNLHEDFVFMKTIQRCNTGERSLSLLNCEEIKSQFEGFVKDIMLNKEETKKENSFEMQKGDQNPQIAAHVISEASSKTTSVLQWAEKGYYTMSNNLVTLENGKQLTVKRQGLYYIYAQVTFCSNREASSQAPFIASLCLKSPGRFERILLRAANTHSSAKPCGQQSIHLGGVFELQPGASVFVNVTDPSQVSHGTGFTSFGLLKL
CD40L-induced CD86 expression on primary B-cells, sequence (P25942 21-277 partner): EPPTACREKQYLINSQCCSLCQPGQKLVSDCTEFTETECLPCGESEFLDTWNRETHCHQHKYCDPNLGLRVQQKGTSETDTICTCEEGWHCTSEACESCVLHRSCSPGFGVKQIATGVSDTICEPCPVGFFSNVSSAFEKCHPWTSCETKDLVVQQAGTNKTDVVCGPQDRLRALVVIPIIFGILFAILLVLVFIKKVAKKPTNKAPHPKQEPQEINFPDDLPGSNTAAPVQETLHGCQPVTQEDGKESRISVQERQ

For `CC[C@H](C)[C@H](NC(=O)[C@H](CO)NC(=O)[C@H](Cc1c[nH]c2ccccc12)NC(=O)[C@H](CCC(N)=O)NC(=O)[C@@H](NC(=O)[C@@H]1CCCN1C(=O)[C@H](Cc1ccccc1)NC(=O)[C@H](Cc1ccccc1)NC(=O)[C@H](Cc1c[nH]c2ccccc12)NC(=O)CNC(=O)[C@H](Cc1ccc(O)cc1)NC(=O)[C@H](CCCCN)NC(=O)[C@H](CC(C)C)NC(=O)[C@@H](NC(=O)[C@H](Cc1c[nH]cn1)NC(=O)[C@H](CO)NC(=O)[C@H](CCCNC(=N)N)NC(=O)[C@H](Cc1ccc(O)cc1)NC(=O)[C@@H]1CCCN1C(=O)[C@@H](NC(=O)[C@H](Cc1ccccc1)NC(=O)[C@@H]1CCCN1C(=O)[C@@H](N)CC(C)C)C(C)C)C(C)C)C(C)C)C(=O)N[C@@H](Cc1ccccc1)C(=O)N[C@@H](C)C(=O)N[C@H](C(=O)N[C@@H](CC(C)C)C(=O)N1CCC[C@H]1C(=O)N[C@@H](Cc1ccccc1)C(=O)N[C@@H](CCC(N)=O)C(=O)N[C@@H](Cc1ccc(O)cc1)C(=O)N[C@@H](CC(C)C)C(=O)N[C@@H](Cc1c[nH]cn1)C(=O)N[C@@H](CCCNC(=N)N)C(=O)N[C@@H](CS)C(=O)N[C@@H](CCCNC(=N)N)C(=O)O)C(C)C` [CD40L M1_18] (H-LPFVPYRSHVLKYGWFFPVQWSIFAVLPFQYLHRCR-OH; N-terminus and C-terminus assumed), in test [1], the “inhibition of CD40L-induced CD86 expression (qualitative)” value (“inhibition … (qualitative)” below) is on record as “concentration-dependent inhibition”. Further, the IC50 in test [1] (monomeric peptide, concentration-dependent) is under 500 nM.

Turning to `CC[C@@H](C)[C@@H](NC(=O)[C@@H](Cc1ccccc1)NC(=O)[C@@H](C)NC(=O)[C@H](NC(=O)[C@@H](CC(C)C)NC(=O)[C@H]1CCCN1C(=O)[C@@H](Cc1ccccc1)NC(=O)[C@@H](CCC(N)=O)NC(=O)[C@@H](Cc1ccc(O)cc1)NC(=O)[C@@H](CC(C)C)NC(=O)[C@@H](Cc1c[nH]cn1)NC(=O)[C@@H](CCCNC(=N)N)NC(=O)[C@@H](CS)NC(=O)[C@H](N)CCCNC(=N)N)C(C)C)C(=O)N[C@H](CO)C(=O)N[C@H](Cc1c[nH]c2ccccc12)C(=O)N[C@H](CCC(N)=O)C(=O)N[C@@H](C(=O)N1CCC[C@@H]1C(=O)N[C@H](Cc1ccccc1)C(=O)N[C@H](Cc1ccccc1)C(=O)N[C@H](Cc1c[nH]c2ccccc12)C(=O)NCC(=O)N[C@H](Cc1ccc(O)cc1)C(=O)N[C@H](CCCCN)C(=O)N[C@H](CC(C)C)C(=O)N[C@@H](C(=O)N[C@H](Cc1c[nH]cn1)C(=O)N[C@H](CO)C(=O)N[C@H](CCCNC(=N)N)C(=O)N[C@H](Cc1ccc(O)cc1)C(=O)N1CCC[C@@H]1C(=O)N[C@@H](C(=O)N[C@H](Cc1ccccc1)C(=O)N1CCC[C@@H]1C(=O)N[C@H](CC(C)C)C(=O)O)C(C)C)C(C)C)C(C)C` [CD40L M1_18rd] (H-[dR][dC][dR][dH][dL][dY][dQ][dF][dP][dL][dV][dA][dF][dI][dS][dW][dQ][dV][dP][dF][dF][dW]G[dY][dK][dL][dV][dH][dS][dR][dY][dP][dV][dF][dP][dL]-OH; N-terminus and C-terminus assumed), the “inhibition … (qualitative)” value in test [1] is “enhanced inhibition”.

For the molecule `CC[C@H](C)[C@H](NC(=O)[C@H](CCC(N)=O)NC(=O)[C@H](Cc1ccccc1)NC(=O)[C@H](Cc1ccccc1)NC(=O)[C@H](CCC(=O)O)NC(=O)[C@H](CCCNC(=N)N)NC(=O)CNC(=O)[C@H](C)NC(=O)[C@H](C)NC(=O)[C@@H](N)CC(=O)O)C(=O)N[C@@H](C)C(=O)NCC(=O)N[C@@H](CC(C)C)C(=O)N[C@@H](Cc1ccccc1)C(=O)N[C@@H](CO)C(=O)N[C@@H](Cc1ccccc1)C(=O)N[C@@H](CCCNC(=N)N)C(=O)N[C@@H](Cc1c[nH]cn1)C(=O)N[C@@H](Cc1c[nH]cn1)C(=O)N[C@@H](Cc1c[nH]c2ccccc12)C(=O)N[C@@H](Cc1c[nH]c2ccccc12)C(=O)N[C@@H](CCC(N)=O)C(=O)N[C@@H](C)C(=O)O` [CD40L M1_30s] (H-DAAGREFFQIAGLFSFRHHWWQA-OH; N-terminus and C-terminus assumed), in test [1], the EC50 is over 2000 nM.

For `CC[C@H](C)[C@H](NC(=O)CNC(=O)CNC(=O)[C@H](CCCNC(=N)N)NC(=O)[C@H](CCC(N)=O)NC(=O)[C@@H](NC(=O)CNC(=O)[C@H](CO)NC(=O)[C@@H]1CCCN1C(=O)[C@@H](NC(=O)[C@H](Cc1ccccc1)NC(=O)[C@H](CC(C)C)NC(=O)[C@H](CO)NC(=O)[C@H](Cc1ccc(O)cc1)NC(=O)[C@H](Cc1ccccc1)NC(=O)[C@H](CCCNC(=N)N)NC(=O)[C@H](CC(N)=O)NC(=O)[C@H](CCCNC(=N)N)NC(=O)[C@@H](NC(=O)[C@H](Cc1c[nH]c2ccccc12)NC(=O)[C@H](CCCNC(=N)N)NC(=O)[C@@H]1CCCN1)C(C)C)C(C)C)C(C)C)C(=O)N[C@@H](Cc1c[nH]cn1)C(=O)N[C@@H](CC(C)C)C(=O)N[C@@H](Cc1c[nH]c2ccccc12)C(=O)N[C@@H](Cc1ccccc1)C(=O)N[C@@H](CO)C(=O)N[C@@H](CC(N)=O)C(=O)N[C@@H](Cc1c[nH]c2ccccc12)C(=O)N[C@H](C(=O)N[C@@H](CCCNC(=N)N)C(=O)O)C(C)C` [CD40L M1_50s] (H-PRWVRNRFYSLFVPSGVQRGGIHLWFSNWVR-OH; N-terminus and C-terminus assumed), the EC50 in test [1] came to 30 nM.

For `CC[C@H](C)[C@H](NC(=O)[C@H](CC(C)C)NC(=O)[C@H](CCC(N)=O)NC(=O)[C@H](Cc1ccccc1)NC(=O)[C@H](Cc1ccc(O)cc1)NC(=O)[C@H](Cc1ccc(O)cc1)NC(=O)[C@H](CCCCN)NC(=O)[C@H](Cc1ccccc1)NC(=O)[C@H](CCCNC(=N)N)NC(=O)[C@H](CO)NC(=O)[C@H](Cc1ccc(O)cc1)NC(=O)[C@H](CCCNC(=N)N)NC(=O)[C@H](Cc1c[nH]c2ccccc12)NC(=O)[C@H](Cc1c[nH]cn1)NC(=O)[C@H](Cc1ccc(O)cc1)NC(=O)[C@H](CCC(N)=O)NC(=O)[C@@H](NC(=O)[C@@H](N)CO)[C@@H](C)CC)C(=O)N[C@@H](Cc1c[nH]c2ccccc12)C(=O)N[C@H](C(=O)N[C@@H](Cc1ccc(O)cc1)C(=O)N[C@@H](Cc1ccc(O)cc1)C(=O)N[C@@H](CO)C(=O)N[C@@H](Cc1c[nH]cn1)C(=O)N[C@H](C(=O)O)C(C)C)C(C)C` [CD40L M1_82s] (H-SIQYHWRYSRFKYYFQLIWVYYSHV-OH; N-terminus and C-terminus assumed), the EC50 on CD40L/CD40-Fc (PEGylated Cys-Ser derivative, read-out: EC50(PEGylated) CD40L/CD40-Fc/BAF617) was 120 nM.

Consider `CC[C@H](C)[C@H](NC(=O)[C@@H](NC(=O)[C@H](CCCCN)NC(=O)[C@@H](NC(=O)[C@H](Cc1ccc(O)cc1)NC(=O)[C@H](CC(C)C)NC(=O)[C@@H](N)CC(C)C)C(C)C)C(C)C)C(=O)N[C@@H](CS)C(=O)N[C@@H](Cc1ccccc1)C(=O)N[C@@H](Cc1ccccc1)C(=O)N[C@@H](CS)C(=O)N[C@@H](CCSC)C(=O)N[C@@H](CC(C)C)C(=O)N[C@H](C(=O)N[C@@H](CCC(N)=O)C(=O)N[C@@H](Cc1ccc(O)cc1)C(=O)N[C@@H](CC(N)=O)C(=O)N[C@@H](CC(N)=O)C(=O)N[C@@H](Cc1ccccc1)C(=O)N[C@@H](CCC(N)=O)C(=O)N[C@H](C(=O)N[C@@H](Cc1ccc(O)cc1)C(=O)N[C@@H](CCCCN)C(=O)O)[C@@H](C)O)C(C)C` [CD40L M2_159] (H-LLYVKVICFFCMLVQYNNFQTYK-OH; N-terminus and C-terminus assumed), for which, at CD40L/CD40-Fc (unmodified (non-PEGylated) monomeric base peptide; read-out: EC50nmodified) CD40L/CD40-Fc/BAF617), the EC50 came out at 120 nM.

With `CC[C@H](C)[C@H](NC(=O)[C@H](CO)NC(=O)[C@H](Cc1ccccc1)NC(=O)[C@@H](NC(=O)[C@H](CC(N)=O)NC(=O)[C@H](CCCCN)NC(=O)[C@@H](NC(=O)[C@H](CO)NC(=O)[C@H](Cc1ccccc1)NC(=O)[C@@H]1CCCN1C(=O)[C@H](Cc1c[nH]cn1)NC(=O)COCCOCCNC(=O)[C@@H](N)CSSC[C@H](N)C(=O)NCCOCCOCC(=O)N[C@@H](Cc1c[nH]cn1)C(=O)N1CCC[C@H]1C(=O)N[C@@H](Cc1ccccc1)C(=O)N[C@@H](CO)C(=O)N[C@H](C(=O)N[C@@H](CCCCN)C(=O)N[C@@H](CC(N)=O)C(=O)N[C@H](C(=O)N[C@@H](Cc1ccccc1)C(=O)N[C@@H](CO)C(=O)N[C@H](C(=O)N[C@@H](Cc1c[nH]c2ccccc12)C(=O)N[C@@H](CC(N)=O)C(=O)N[C@@H](Cc1ccccc1)C(=O)N[C@@H](Cc1ccccc1)C(=O)N[C@@H](CO)C(=O)N[C@H](C(=O)N[C@@H](Cc1ccc(O)cc1)C(=O)O)C(C)C)[C@@H](C)CC)C(C)C)[C@@H](C)CC)[C@@H](C)CC)C(C)C)C(=O)N[C@@H](Cc1c[nH]c2ccccc12)C(=O)N[C@@H](CC(N)=O)C(=O)N[C@@H](Cc1ccccc1)C(=O)N[C@@H](Cc1ccccc1)C(=O)N[C@@H](CO)C(=O)N[C@H](C(=O)N[C@@H](Cc1ccc(O)cc1)C(=O)O)C(C)C` [Cys_M1_6S homodimer] (I: H-C[AEEA]HPFSIKNVFSIWNFFSVY-OH / II: H-C[AEEA]HPFSIKNVFSIWNFFSVY-OH; disulfide I:1-II:1; C-terminus assumed), on CD40L/CD40-Fc (qualitative), the “inhibition of CD40L-CD40 interaction relative to monomeric peptide controls” value was “enhanced inhibition”. Further, the “inhibition … (qualitative)” value in test [1] was “enhanced inhibition”.
